Test results as given in patent publication US12480920B2, “Method for the detection and quantification of fosfomycin, impurities and degradation products thereof” (MEITHEAL PHARMACEUTICALS, INC., priority 2019, dated 2025).

Assay: Stability study of fosfomycin for injection drug product: analysis of impurities by HILIC-HPLC with CAD detection
Format: physicochemical
Conditions: fosfomycin for injection drug product (vials, 7.92 g fosfomycin disodium + 150 mg succinic acid), 25° C. and 60% RH; for wt % of impurities at time points (months): 0: 0 months; for wt % of impurities at time points (months): 1: 1 month; for wt % of impurities at time points (months): 3: 3 months; for wt % of impurities at time points (months): 6: 6 months; for wt % of impurities at time points (months): 9: 9 months; for wt % of impurities at time points (months): 12: 12 months
Description: As part of a stability study of fosfomycin for injection drug product, analysis of impurities was performed according to the method of the present invention, using HILIC-HPLC method with CAD detection, as disclosed, for example, in example 2.
The sample subjected to the stability test was fosfomycin for injection drug product, namely, vials containing sterile dry powder admixture of 7.92 g of fosfomycin disodium and 150 mg of succinic acid.
The samples were kept at 25° C. and 60% RH. Analysis of impurities was performed at the following time points: 0, 1, 3, 6, 9 and 12 months. Impurities are reported at weight percentage 0.05% (limit of detection of the method). “Dtd.” in the table stands for “detected”, meaning that the impurity is detected but is under the limit of detection (0.05 wt %). ND stands for “not detected”.

Structure (SMILES) | wt % of impurities at time points (months): 0 | wt % of impurities at time points (months): 1 | wt % of impurities at time points (months): 3 | wt % of impurities at time points (months): 6 | wt % of impurities at time points (months): 9 | wt % of impurities at time points (months): 12
CC(OP(=O)(O)C1OC1C)C(O)P(=O)(O)O (stereo not drawn) [Dimer1] | 0.05 wt % | 0.06 wt % | 0.05 wt % | 0.08 wt % | 0.06 wt % | 0.09 wt %
CC(OP(=O)(O)C1OC1C)C(O)P(=O)(O)O (stereo not drawn) [Dimer2] | 0.05 wt % | Dtd. (“Dtd.” in the table stands for “detected”, meaning that the impurity is detected but is under the limit of detection (0.05 wt %)) | 0.07 wt % | 0.10 wt % | 0.08 wt % | 0.11 wt %
CC(OP(=O)(O)C1OC1C)C(O)P(=O)(O)O (stereo not drawn) [Dimer3] |  |  |  |  |  | Dtd. (“Dtd.” in the table stands for “detected”, meaning that the impurity is detected but is under the limit of detection (0.05 wt %))
CCOC(C(C)O)P(=O)(O)O (stereo not drawn) [Ethanol adduct] |  |  | Dtd. (“Dtd.” in the table stands for “detected”, meaning that the impurity is detected but is under the limit of detection (0.05 wt %)) |  | Dtd. (“Dtd.” in the table stands for “detected”, meaning that the impurity is detected but is under the limit of detection (0.05 wt %)) | Dtd. (“Dtd.” in the table stands for “detected”, meaning that the impurity is detected but is under the limit of detection (0.05 wt %))
CC(O)C(O)P(=O)([O-])[O-].[Na+].[Na+] (stereo not drawn) [Impurity A, (1,2-dihydroxypropyl)phosphonate] | Dtd. (“Dtd.” in the table stands for “detected”, meaning that the impurity is detected but is under the limit of detection (0.05 wt %)) | 0.06 wt % | 0.07 wt % | 0.09 wt % | 0.11 wt % | 0.10 wt %
COC(C(C)O)P(=O)(O)O (stereo not drawn) [Methanol adduct] | 0.07 wt % | 0.18 wt % | 0.13 wt % | 0.35 wt % | Dtd. (“Dtd.” in the table stands for “detected”, meaning that the impurity is detected but is under the limit of detection (0.05 wt %)) | 0.12 wt %
C=CCP(=O)(O)O [Olefinic acid, 2-propenyl phosphonic acid] | 0.40 wt % | 0.46 wt % | 0.39 wt % | 0.42 wt % | 0.36 wt % | 0.40 wt %
CC(OP(=O)(OC(C)C(O)P(=O)(O)O)C1OC1C)C(O)P(=O)(O)O (stereo not drawn) [Trimer] | Dtd | 0.07 wt % |  | Dtd. (“Dtd.” in the table stands for “detected”, meaning that the impurity is detected but is under the limit of detection (0.05 wt %)) | Dtd. (“Dtd.” in the table stands for “detected”, meaning that the impurity is detected but is under the limit of detection (0.05 wt %)) | Dtd. (“Dtd.” in the table stands for “detected”, meaning that the impurity is detected but is under the limit of detection (0.05 wt %))
